Here are results for 15 molecules from patent publication US11180474B2 (BRISTOL-MYERS SQUIBB COMPANY, priority 2016, dated 2021).

The subject of one assay is TLR7. The assay is described as follows: In vivo mouse TLR7 PD model (gardiquimod challenge, plasma IL-6). To be noted: oral. As for the experimental part:
In Vivo Mouse TLR7 and TLR9 PD Model:
Adult male C57BL/6 mice were used for the experiments. Mice (7 to 10 per group) were randomized into different treatment groups based on body weight. Mice from the respective treatment groups were administered orally with vehicle or test compound. Thirty min after the oral administration of vehicle or test compound, mice were challenged with intraperitoneal injection of gardiquimod for TLR7 PD model and CpG-ODN for TLR9 PD model. Ninety minutes after gardiquimod injection and 120 minutes after CpG-ODN injection, mice were bled under isoflurane anaesthesia and plasma IL-6 level was estimated by using commercially available ELISA kit (BD Biosciences). At the end of experiment, mean cytokine data was plotted and one way ANOVA with Dunnett's test was performed to calculate the significance of test compound treated group vs. vehicle control group. Percent inhibition of cytokine induction was calculated for test compound treated group vs vehicle control group.

The target in the next assay is T1, human TLR7 (Homo sapiens, UniProt Q9NYK1).
T1 construct: host or cells: HEK-Blue cells
T1 sequence (Q9NYK1 27-1049): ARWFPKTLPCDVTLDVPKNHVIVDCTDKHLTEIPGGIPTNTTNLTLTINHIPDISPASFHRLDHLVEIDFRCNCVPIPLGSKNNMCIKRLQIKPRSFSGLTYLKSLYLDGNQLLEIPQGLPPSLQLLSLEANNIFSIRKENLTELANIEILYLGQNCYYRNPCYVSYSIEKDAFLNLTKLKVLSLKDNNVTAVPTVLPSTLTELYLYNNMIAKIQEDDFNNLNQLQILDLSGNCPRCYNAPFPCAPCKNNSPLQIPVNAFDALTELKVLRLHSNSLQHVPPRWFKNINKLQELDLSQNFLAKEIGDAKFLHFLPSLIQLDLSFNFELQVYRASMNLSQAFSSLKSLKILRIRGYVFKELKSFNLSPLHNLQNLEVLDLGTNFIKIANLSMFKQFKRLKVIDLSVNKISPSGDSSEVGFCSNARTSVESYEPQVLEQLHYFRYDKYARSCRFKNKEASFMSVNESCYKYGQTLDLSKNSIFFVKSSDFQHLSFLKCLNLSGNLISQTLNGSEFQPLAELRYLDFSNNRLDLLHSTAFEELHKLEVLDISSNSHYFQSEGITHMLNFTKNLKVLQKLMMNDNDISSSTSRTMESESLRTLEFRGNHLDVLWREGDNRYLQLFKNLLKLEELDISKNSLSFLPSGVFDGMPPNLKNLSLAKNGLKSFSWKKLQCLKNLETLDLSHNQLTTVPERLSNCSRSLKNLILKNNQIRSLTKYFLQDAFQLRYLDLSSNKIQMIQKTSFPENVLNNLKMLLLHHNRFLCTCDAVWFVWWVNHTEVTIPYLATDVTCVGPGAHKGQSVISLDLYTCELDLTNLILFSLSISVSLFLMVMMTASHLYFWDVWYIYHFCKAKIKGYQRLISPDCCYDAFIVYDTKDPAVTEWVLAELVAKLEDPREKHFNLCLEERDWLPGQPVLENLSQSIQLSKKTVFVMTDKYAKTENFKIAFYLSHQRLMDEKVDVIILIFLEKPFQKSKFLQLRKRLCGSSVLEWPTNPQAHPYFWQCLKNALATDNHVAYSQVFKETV
As to the kind of experiment: TLR7 inhibition reporter assay (HEK-Blue cells, SEAP reporter, gardiquimod stimulation). In kind it is cell-based. To be noted: HEK-Blue cells overexpressing human TLR7, gardiquimod 7.5 μM. The method in brief: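 Dose-response testing from 0.05 nM to 50 μM final was done on reporter cells for 22 hours at 37° C. Secreted SEAP was then detected, and inhibition was calculated as percent reduction of the agonist-plus-DMSO signal compared with wells given a known inhibitor.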
A general note: Reporter assays use an easily measured gene product as a stand-in for the process of interest.

Consider `COc1ccc(-c2[nH]c3ccc(C4CCN(CC(=O)N(C)C)CC4)cc3c2C(C)C)cc1OC` [Example 312, 2-(4-(2-(3,4-dimethoxyphenyl)-3-isopropyl-11H-indol-5-yl)piperidin-1-yl)-N,N-dimethylacetamide], for which the “% inhibition of IL6” value with TLR7 (dose 0.001 mg/kg) is 34%; with TLR7 (dose 0.01 mg/kg), 39%; in the assay on TLR7 (dose 0.1 mg/kg) it was 59%; in the assay on TLR7 (dose 1 mg/kg) it was 82%. 8 nM corresponded to half-maximal inhibition at human TLR7 (IC50).
With `COc1ccc(-c2[nH]c3ccc(C4CCN(Cc5cnn(C)c5)CC4)cc3c2C(C)C)cc1OC` [Example 259, 2-(3,4-dimethoxyphenyl)-3-isopropyl-5-(1-((1-methyl-1H-pyrazol-4-yl)methyl)piperidin-4-yl)-1H-indole], at human TLR7, the IC50 – broadly, the concentration at which inhibition is half-maximal – was 40 nM. This lies in the double-digit nanomolar range.
On the same count and under the same terms, in the case of `COc1ccc(-c2[nH]c3ccc(C4CCN(C5C[C@H]6CC[C@@H](C5)N6C)CC4)cc3c2C)cc1OC` (stereo partly drawn) [Example 21, 2-(3,4-dimethoxyphenyl)-3-methyl-5-(1-((1R,5S)-8-methyl-8-azabicyclo[3.2.1]octan-3-yl)piperidin-4-yl)-1H-indole] it was 72 nM.
The same measure, in the same setting: the figure for `COc1ccc(-c2[nH]c3ccc(C4CCNCC4O)cc3c2C(C)C)cc1OC` (single isomer, unassigned) [Example 317, 4-(2-(3,4-dimethoxyphenyl)-3-isopropyl-1H-indol-5-yl)piperidin-3-ol 2,2,2-trifluoroacetate] is 38 nM.
Still for that read-out and setting: in the case of `COc1ccc(-c2[nH]c3ccc(C4CCN(C(=O)CN5CCC[C@@H](C(=O)NCC#N)C5)CC4)cc3c2C(C)C)cc1OC` [Example 308, (R)—N-(cyanomethyl)-1-(2-(4-(2-(3,4-dimethoxyphenyl)-3-isopropyl-1H-indol-5-yl)piperidin-1-yl)-2-oxoethyl)piperidine-3-carboxamide] it was 37 nM; in that of `COc1ccc(-c2[nH]c3ccc(C4CCN(C(=O)CN5CCC[C@@H](C(=O)N(C)C(C)C)C5)CC4)cc3c2C(C)C)cc1OC` [Example 304, (R)-1-(2-(4-(2-(3,4-dimethoxyphenyl)-3-isopropyl-1H-indol-5-yl)piperidin-1-yl)-2-oxoethyl)-N-isopropyl-N-methylpiperidine-3-carboxamide], 64 nM; in that of `COc1ccc(-c2[nH]c3ccc(C4CCN(C(=O)CNC[C@@H](F)C(C)(C)O)CC4)cc3c2C(C)C)cc1OC` [Example 251, (R)-1-(4-(2-(3,4-dimethoxyphenyl)-3-isopropyl-1H-indol-5-yl)piperidin-1-yl)-2-((2-fluoro-3-hydroxy-3-methylbutyl)amino) ethan-1-one], 372 nM.
Take `COc1ccc(-c2[nH]c3ccc(C4CCN(C(=O)CN5CCC[C@H](C(=O)N6CC7CNCC7C6)C5)CC4)cc3c2C(C)C)cc1OC` (stereo partly shown) [Example 299, 1-(4-(2-(3,4-dimethoxyphenyl)-3-isopropyl-1H-indol-5-yl)piperidin-1-yl)-2-((3 S)-3-(octahydropyrrolo[3,4-c]pyrrole-2-carbonyl)piperidin-1-yl)ethan-1-one]: the IC50 against human TLR7 is 204 nM. This IC50 is about 1.8-fold lower than that of the molecule before.
Consider `COc1ccc(-c2[nH]c3ccc(C4CCN(C(=O)CN5CCC[C@H](C(=O)N6CCN(c7cccc(C(F)(F)F)c7)CC6)C5)CC4)cc3c2C(C)C)cc1OC` [Example 290, (S)-1-(4-(2-(3,4-dimethoxyphenyl)-3-isopropyl-1H-indol-5-yl)piperidin-1-yl)-2-(3-(4-(3-(trifluoromethyl)phenyl)piperazine-1-carbonyl)piperidin-1-yl)ethan-1-one], for which, at human TLR7, the IC50 is 1740 nM.
Still for that read-out and setting: the figure for `COc1ccc(-c2[nH]c3ccc(C4CCN(C(=O)CN5CCC[C@@H](C(=O)N6CCN(C(C)C)CC6)C5)CC4)cc3c2C(C)C)cc1OC` [Example 302, (R)-1-(4-(2-(3,4-dimethoxyphenyl)-3-isopropyl-1H-indol-5-yl)piperidin-1-yl)-2-(3-(4-isopropylpiperazine-1-carbonyl)piperidin-1-yl)ethan-1-one] is 40 nM; for `COc1ccc(-c2[nH]c3ccc(C4CCN(C(=O)CN5CCCN(C(C)=O)CC5)CC4)cc3c2C(C)C)cc1OC` [Example 222, 2-(4-acetyl-1,4-diazepan-1-yl)-1-(4-(2-(3,4-dimethoxyphenyl)-3-isopropyl-1H-indol-5-yl)piperidin-1-yl)ethan-1-one] it is 45 nM; for `COc1ccc(-c2[nH]c3ccc(C4CCN(C(=O)CNCC(N)=O)CC4)cc3c2C(C)C)cc1OC` [Example 228, 2-((2-(4-(2-(3,4-dimethoxyphenyl)-3-isopropyl-1H-indol-5-yl)piperidin-1-yl)-2-oxoethyl)amino)acetamide] it is 46 nM.
Still for that read-out and setting: the figure for `COc1ccc(-c2[nH]c3ccc(C4CCN(C(=O)CNCCC(C)O)CC4)cc3c2C(C)C)cc1OC` (stereo not shown) [Example 237, 1-(4-(2-(3,4-dimethoxyphenyl)-3-isopropyl-1H-indol-5-yl)piperidin-1-yl)-2-((3-hydroxybutyl)amino)ethan-1-one] is 15 nM; for `COc1ccc(-c2[nH]c3ccc(C4CCN(C(=O)CN5CCC(N6CCN(C)CC6)CC5)CC4)cc3c2C(C)C)cc1OC` [Example 241, 1-(4-(2-(3,4-dimethoxyphenyl)-3-isopropyl-1H-indol-5-yl)piperidin-1-yl)-2-(4-(4-methylpiperazin-1-yl)piperidin-1-yl)ethan-1-one] it is 12 nM.
Regarding `COc1ccc(-c2[nH]c3ccc(C4CCN(C(=O)CN5CCCC(CO)C5)CC4)cc3c2C(C)C)cc1OC` (stereo not shown) [Example 226, 1-(4-(2-(3,4-dimethoxyphenyl)-3-isopropyl-1H-indol-5-yl)piperidin-1-yl)-2-(3-(hydroxymethyl)piperidin-1-yl)ethan-1-one], the IC50 at human TLR7 worked out at 16 nM.
